# Reference: article PMC10613275 (Scientific Reports, 2023)
# Entries after “also recorded” stand apart in the source; their conditions may differ.
# Columns and labels:
# [1] = Intestinal absorption, Caco-2 intestinal barrier model in vitro; type: in vitro ADME, human; conditions: human
# Caco-2 cells [2] = assay: as above; type: in vitro ADME, human; conditions: lilial 1 mM, 4 h
# HeLa cells = assay: γH2AX biomarker-based genotoxicity assay, HeLa; type: cell-based, human; conditions: for MoA (mean fluorescence values over area of the nuclei): PC 30 μM
# Protocol: Briefly, HeLa and CHO-K1 cells were seeded at a concentration of 1 × 10^5 cells/ml into the 96-well plates. CHO-K1 cells were used for comparison with HPRT test. HeLa cells were recommended by the manufacturer of the kit. After 24 h, cells were rinsed with PBS and cultivation medium (“Cell lines” Section) without ATB, with a reduced content of FBS (5%) was added. 30 µM valinomycin (in DMSO) was used as a positive control Samples were applied in the presence of non-toxic sample concentrations, i.e. 100 µM either with or without S9 mix. […] Cells were photographed using a fluorescence microscope (Olympus IX83); filters: DAPI (500 ms) and Cy3 (500 ms). Bioimage analysis in ImageJ software was performed as described previously.
# RPTEC/TERT1 cells = assay: Nephrotoxicity, RT-qPCR of kidney damage biomarkers; type: cell-based, human; conditions: up to 100 µM
# Protocol: RPTEC/TERT1 cells were seeded at a concentration of 2 × 10^5 cells/ml in ProxUp2 medium into 60 mm Petri dishes. After 24 h, the cells were washed with PBS and […] metabolites (100 μM) were applied in fresh ProxUp2 medium. The cells were incubated with samples for 48 h, after which the cells were washed with PBS and dishes were frozen in - 160 °C. The RNA was isolated using RNeasy Plus Mini Kit (Qiagen, Hilden, Germany). The RNA concentration and purity was determined with NanoDrop One (ThermoFisher Scientific) spectrophotometr. The cDNA synthesis was performed from 0.1 μg of total RNA with an iScript Reverse Transcription Supermix (Bio-Rad, Hercules, California, USA). Quantitative real-time PCR (qPCR) was performed using the qPCR Bio-Rad C100 Touch System (Bio-Rad) with a 96-well block. The reaction mixture consisted of 1 μl of specific 20 × PrimePCR Assay (Bio-Rad), 10 μl of 2 × SsoAdvance Universal Supermix (Bio-Rad), 2 μl of cDNA sample, 7 μl of nuclease-free water. The final reaction volume was 20 μl. […] Cycling parameters were: initial denaturation at 95 °C for 2 min, followed by 40 cycles of 95 °C for 5 s and 60 °C for 30 s. Fluorescence values were acquired after each extension phase. Samples were analyzed in triplicate, and samples with a standard deviation of duplicates > 0.2 Ct were re-analyzed. A non-template control containing nuclease-free water instead of cDNA as well as non-RT control containing purified RNA without reverse transcription was used. The real-time PCR study followed the MIQE guidelines. Relative transcript levels of the estimated genes in the cell lines were compared using the software CFX Maestro Software 2.3 (Bio-Rad).
# NF-κB signal pathway = NF-κB signal pathway activation, luciferase reporter in transfected HEK293; type: cell-based, human; conditions: HEK293, 100 µM (Table 1), 5 h
# Description: […]. HEK293 cells were transiently transfected with reporter plasmid pGL4.32 (luc2P/NF-κB-RE/Hygro, Promega Corporation, Madison, Wisconsin, USA) or pGL4.37 (luc2P/NRF2-ARE/Hygro) using FuGENE (Promega Corporation). Plasmid pEGFP-C1 carrying the gene for green fluorescent protein (GFP) was co-transfected with the reporter plasmids as a normalization plasmid enabling normalization of the signal to transfection level. […] To test the activation of NRF2-ARE pathway, tert-butyl hydroquinone (TBHQ, in the range from 4 to 63 µM) as a positive control or samples (50 µM) were incubated with the cells for 18 h. The fluorescence (488/513 nm) was determined using SpectraMax i3x Multi-Mode Microplate Reader (Molecular Devices, San Jose, California, USA). Subsequent quantification of luciferase activity was performed using the Bright-Glo™ Luciferase Assay System (Promega Corporation) according to the manufacturer’s instructions.
# CHO-K1 cells (hprt gene) = assay: CHO/HPRT mutation assay; type: cell-based, Chinese hamster; conditions: lilial 500 µM, 3MC 2 µg/ml
# HepG2 cells = conditions: HepG2, 100 µM ref 2; cited from earlier work
# Caco-2 cells [3] = conditions: Caco-2, 100 µM ref 2; cited from earlier work
# MCF7 cells = conditions: MCF7 ref 2; cited from earlier work
# rats = test system: rats; set-up: method as in PMID 32461162; conditions: parental rats F0 and F1 in vivo ref 3; cited from earlier work
# [4] = test system: ARE-Nrf2 luciferase (KeratinoSens); set-up: method as in PMID 23576290; conditions: cited from earlier work
# [5] = set-up: method as in earlier work; conditions: rat, 1% p-BMHCA in ethanol, 120 µg substance/cm^2, 16 h ref 4; cited from earlier work
# [6] = set-up: method as in earlier work; conditions: human volunteers, cited from earlier work
# mouse lymphoma cells = test system: mouse lymphoma cells; set-up: method as in earlier work; conditions: cited from earlier work
# dogs = conditions: dog, in vivo; cited from earlier work
# [7] = test system: S. typhimurium and E. coli, CHO and Chinese hamster V79 cells; conditions: cited from earlier work
# [8] = test system: fertilized eggs of white turkey (Meleagris gallopavo); conditions: 10 mg/egg ref 6; cited from earlier work
# Salmonella strains = conditions: up to 5000 µg/plate with or without metabolic activation ref 4; cited from earlier work
# CHO-K1 cells = assay: Cytotoxicity, cell viability (resazurin assay), CHO-K1, with or without S9 mix; conditions: 1 day
compound,measurement,setting,value
"CC(C=O)Cc1ccc(C(C)(C)C)cc1 (stereo not shown) [Lilial, 3-(4-(tert-butyl)phenyl)-2-methylpropanal]","recovery at 4 h, 1 mM","[1]; Caco-2, lilial 1 mM, 4 h, all compartments",~80%
same,"Papp at 4 h, 1 mM","[1]; Caco-2, read-out: Papp (apparent permeability coefficient)",21 ×10⁻⁶ cm/s
same,Lilial (%) in Caco-2 cells,Caco-2 cells [2],13.1 ± 5.2%
same,Lilial (%) in apical medium,Caco-2 cells [2],32.3 ± 2.0%
same,Lilial (%) in basolateral medium,Caco-2 cells [2],34.1 ± 3.4%
same,Recovery,Caco-2 cells [2]; all compartments,79.5%
same,Genotoxicity result,HeLa cells; 100 µM,Non genotoxic
same,MoA (mean fluorescence values over area of the nuclei),"HeLa cells; 4h_S9, lilial 100 µM",0.20
same,MoA (mean fluorescence values over area of the nuclei),"HeLa cells; 4 h, without S9, lilial 100 µM",0.11
same,MoA (mean fluorescence values over area of the nuclei),"HeLa cells; 24 h, lilial 100 µM",0.03
same,Nephrotoxicity result,RPTEC/TERT1 cells,Non nephrotoxic
same,Nephrotoxicity result,RPTEC/TERT1 cells; listed as lilial,"not toxic; also recorded: neither lilial, nor its metabolites, demonstrated nephrotoxic activity"
same,NF-κB signal pathway activation result,NF-κB signal pathway,Non activator
same,NF-κB signal pathway activation result,NF-κB signal pathway; listed as lilial,neither the NF-kB (Fig. 7) nor NRF2 (Fig. 8) signalling pathway was activated
same,MF (/106) mutation frequency,"CHO-K1 cells (hprt gene); Table 4, With S9",6 ± 5 /106
same,NMC (number of mutant colonies),"CHO-K1 cells (hprt gene); Table 4, Without S9",0
same,Decrease in cell viability,HepG2 cells,23%
same,Decrease in cell viability,Caco-2 cells [3],23%
same,Effect on cell viability,MCF7 cells,no negative effect
same,Effects on fertility and reproductive performance,rats,no adverse effects
same,KeratinoSens assay result,[4],negative
same,In vitro dermal absorption,[5],78.4%
same,Mean of applied dose detected in urine,"[6]; dermal 6 h, urine within 24 h ref 4",1.4%
same,Topical application recovery,[6]; dermal 6 h ref 4,71 ± 10%
same,Mouse lymphoma assay outcome,mouse lymphoma cells,negative outcome
same,"Oral dose that reduced body weight, gave clinical and systemic toxicity",dogs,≥ 200 mg/kg/day
same,Genotoxic and mutagenic potential,[7],No genotoxic and mutagenic potential
same,DNA strand breaks in the comet assay,[8],2.0 fold
same,"Mutagenic activity, Ames test",Salmonella strains,"increased number of revertant colonies were detected only for the Salmonella strain TA1535, but it was not reproducible"
same,Toxic concentration,"CHO-K1 cells; 5 nm–500 µM, without S9",≥ 250 µM
same,Cytotoxicity result after metabolization by the S9 mix,"CHO-K1 cells; up to 500 µM, with S9 mix",no cytotoxicity
